#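 The compound was tested at five concentrations on cells cultured in 96-well plates, with a 48-hour exposure period. Here, GI50 denotes the concentration required for 50% inhibition of growth. Definition used: TGI = concentration required for complete inhibition of growth.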
# Legend:
# Assay in all cases: NCI tumour cell line growth inhibition, 48 h
# [1] = tested on: UACC-62 melanoma
# [2] = tested on: SK-MEL-2 melanoma
# [3] = tested on: A549 NSCLC
# [4] = tested on: NCI/ADR-RES ovarian
# [5] = tested on: HS 578T breast
# [6] = tested on: NCI-H23 lung
# [7] = tested on: MDA-MB-231 breast
# [8] = tested on: PC-3 prostate
# [9] = tested on: NCI-H226 lung
# [10] = tested on: HL-60(TB) leukemia
# [11] = tested on: 786-0 renal
# [12] = tested on: SNB-19 CNS
# [13] = tested on: CAKI-1 renal
# [14] = tested on: MOLT-4 leukemia
# [15] = tested on: SF-268 CNS
# [16] = tested on: HOP-62 NSCLC
# [17] = tested on: SK-MEL-5 melanoma
# [18] = tested on: KM12 colon
# [19] = tested on: OVCAR-3 ovarian
# [20] = tested on: HT29 colon
# [21] = tested on: HCC-2998 colon
# [22] = tested on: UACC-257 melanoma
# [23] = tested on: MDA-MB-435
# [24] = tested on: IGROV1 ovarian
# [25] = tested on: SK-MEL-28 melanoma
# [26] = tested on: SF-539 CNS
# [27] = tested on: U251 CNS
# [28] = tested on: T-47D breast
# [29] = tested on: K-562 leukemia
# [30] = tested on: RXF 393 renal
# [31] = tested on: TK-10 renal
# [32] = tested on: OVCAR-8 ovarian
# [33] = tested on: SF-295 CNS
# [34] = tested on: NCI-H522 lung
# [35] = tested on: MCF7 breast
# [36] = tested on: SN12C renal
# [37] = tested on: COLO 205 colon
# [38] = tested on: OVCAR-5 ovarian
# [39] = tested on: EKVX NSCLC
# [40] = tested on: ACHN renal
# [41] = tested on: LOX IMVI melanoma
# [42] = tested on: HOP-92 NSCLC
# [43] = tested on: DU-145 prostate
# [44] = tested on: NCI-H460 lung
# [45] = tested on: UO-31 renal
# [46] = tested on: A498 renal
# [47] = tested on: M14 melanoma
# [48] = tested on: SR leukemia
# [49] = tested on: SW-620 colon
# [50] = tested on: HCT-15 colon
# [51] = tested on: CCRF-CEM leukemia
# [52] = tested on: SNB-75 CNS
# [53] = tested on: HCT-116 colon
# [54] = tested on: MALME-3M melanoma
# [55] = tested on: SK-OV-3 ovarian
# [56] = tested on: RPMI-8226 leukemia
# [57] = tested on: OVCAR-4 ovarian
structure (smiles),measurement,setting,value
COc1cc(/C=C2\C[C@H]3[C@@H]4CC=C5C[C@@H](O)CC[C@]5(C)[C@H]4CC[C@]3(C)[C@H]2O)ccc1OCCCn1ccnc1,GI50,[1],1.59 µM
same,TGI,[1],6.65 µM
same,GI50,[2],32.7 µM
same,TGI,[2],> 50 µM
same,GI50,[3],1.18 µM
same,TGI,[3],2.63 µM
same,GI50,[4],13.6 µM
same,TGI,[4],> 50 µM
same,GI50,[5],1.18 µM
same,TGI,[5],4.24 µM
same,GI50,[6],9.31 µM
same,TGI,[6],40.8 µM
same,GI50,[7],0.863 µM
same,TGI,[7],1.74 µM
same,GI50,[8],1.45 µM
same,TGI,[8],5.03 µM
same,GI50,[9],4.09 µM
same,TGI,[9],15.2 µM
same,GI50,[10],2.79 µM
same,TGI,[10],15.9 µM
same,GI50,[11],1.23 µM
same,TGI,[11],3.09 µM
same,GI50,[12],12.4 µM
same,TGI,[12],> 50 µM
same,GI50,[13],1.81 µM
same,TGI,[13],7.86 µM
same,GI50,[14],> 50 µM
same,TGI,[14],> 50 µM
same,GI50,[15],3.82 µM
same,TGI,[15],19.2 µM
same,GI50,[16],3.45 µM
same,TGI,[16],20 µM
same,GI50,[17],4.15 µM
same,TGI,[17],12.4 µM
same,GI50,[18],1.82 µM
same,TGI,[18],7.2 µM
same,GI50,[19],0.946 µM
same,TGI,[19],2.9 µM
same,GI50,[20],2.68 µM
same,TGI,[20],> 50 µM
same,GI50,[21],8.22 µM
same,TGI,[21],16.1 µM
same,GI50,[22],6.3 µM
same,TGI,[22],15.4 µM
same,GI50,[23],3.52 µM
same,TGI,[23],12.6 µM
same,GI50,[24],12.5 µM
same,TGI,[24],> 50 µM
same,GI50,[25],10.2 µM
same,TGI,[25],> 50 µM
same,GI50,[26],1.05 µM
same,TGI,[26],2.09 µM
same,GI50,[27],0.923 µM
same,TGI,[27],1.72 µM
same,GI50,[28],17.7 µM
same,TGI,[28],> 50 µM
same,GI50,[29],2.69 µM
same,TGI,[29],> 50 µM
same,GI50,[30],2.52 µM
same,TGI,[30],43.4 µM
same,GI50,[31],0.738 µM
same,TGI,[31],2.09 µM
same,GI50,[32],2.62 µM
same,TGI,[32],16.1 µM
same,GI50,[33],1.55 µM
same,TGI,[33],6.32 µM
same,GI50,[34],22.3 µM
same,TGI,[34],> 50 µM
same,GI50,[35],2.63 µM
same,TGI,[35],27.7 µM
same,GI50,[36],2.73 µM
same,TGI,[36],13.2 µM
same,GI50,[37],8.74 µM
same,TGI,[37],> 50 µM
same,GI50,[38],7.14 µM
same,TGI,[38],23.3 µM
same,GI50,[39],6.06 µM
same,TGI,[39],> 50 µM
same,GI50,[40],1.28 µM
same,TGI,[40],3.34 µM
same,GI50,[41],0.988 µM
same,TGI,[41],2.01 µM
same,GI50,[42],4.44 µM
same,TGI,[42],12.5 µM
same,GI50,[43],1.92 µM
same,TGI,[43],7.45 µM
same,GI50,[44],1.52 µM
same,TGI,[44],5.11 µM
same,GI50,[45],2.12 µM
same,TGI,[45],> 50 µM
Cc1ccc(NC(=O)c2sc3nc4c(cc3c2N)C(=O)CCC4)cc1C,GI50,[46],0.198 µM
same,TGI,[46],0.658 µM
same,GI50,[1],0.496 µM
same,TGI,[1],> 100 µM
same,GI50,[2],0.464 µM
same,TGI,[2],> 100 µM
same,GI50,[3],0.704 µM
same,TGI,[3],> 100 µM
same,GI50,[4],0.784 µM
same,TGI,[4],> 100 µM
same,GI50,[5],0.442 µM
same,TGI,[5],> 100 µM
same,GI50,[47],0.602 µM
same,TGI,[47],> 100 µM
same,GI50,[6],1.41 µM
same,TGI,[6],> 100 µM
same,GI50,[7],1.65 µM
same,TGI,[7],> 100 µM
same,GI50,[8],0.607 µM
same,TGI,[8],> 100 µM
same,GI50,[9],27.3 µM
same,TGI,[9],> 100 µM
same,GI50,[48],0.499 µM
same,TGI,[48],26.8 µM
same,GI50,[10],0.36 µM
same,TGI,[10],1.72 µM
same,GI50,[11],0.699 µM
same,TGI,[11],> 100 µM
same,GI50,[12],0.652 µM
same,TGI,[12],> 100 µM
same,GI50,[13],0.661 µM
same,TGI,[13],> 100 µM
same,GI50,[14],6.41 µM
same,TGI,[14],76.2 µM
same,GI50,[15],4.47 µM
same,TGI,[15],> 100 µM
same,GI50,[49],0.417 µM
same,TGI,[49],> 100 µM
same,GI50,[16],0.733 µM
same,TGI,[16],> 100 µM
same,GI50,[17],0.418 µM
same,TGI,[17],21.6 µM
same,GI50,[50],0.556 µM
same,TGI,[50],> 100 µM
same,GI50,[18],0.486 µM
same,TGI,[18],> 100 µM
same,GI50,[19],0.345 µM
same,TGI,[19],1.6 µM
same,GI50,[20],0.399 µM
same,TGI,[20],11.2 µM
same,GI50,[21],1.96 µM
same,TGI,[21],> 100 µM
same,GI50,[22],21.6 µM
same,TGI,[22],> 100 µM
same,GI50,[24],2.2 µM
same,TGI,[24],> 100 µM
same,GI50,[25],1.86 µM
same,TGI,[25],> 100 µM
same,GI50,[51],0.377 µM
same,TGI,[51],97 µM
same,GI50,[27],0.765 µM
same,TGI,[27],> 56.7 µM
same,GI50,[28],0.533 µM
same,TGI,[28],> 73.2 µM
same,GI50,[29],0.468 µM
same,TGI,[29],35 µM
same,GI50,[52],0.313 µM
same,TGI,[52],> 100 µM
same,GI50,[53],0.546 µM
same,TGI,[53],> 100 µM
same,GI50,[31],> 70 µM
same,TGI,[31],> 100 µM
same,GI50,[32],3.45 µM
same,TGI,[32],> 100 µM
same,GI50,[33],0.358 µM
same,TGI,[33],> 100 µM
same,GI50,[34],0.276 µM
same,TGI,[34],4.88 µM
same,GI50,[35],0.352 µM
same,TGI,[35],> 100 µM
same,GI50,[36],0.797 µM
same,TGI,[36],> 100 µM
same,TGI,[54],> 100 µM
same,GI50,[55],0.533 µM
same,TGI,[55],> 100 µM
same,GI50,[37],0.309 µM
same,TGI,[37],0.936 µM
same,GI50,[56],1.57 µM
same,TGI,[56],> 30.4 µM
same,GI50,[38],3.16 µM
same,TGI,[38],> 100 µM
same,GI50,[57],1.13 µM
same,TGI,[57],> 100 µM
same,GI50,[40],1.42 µM
same,TGI,[40],> 100 µM
same,GI50,[41],0.837 µM
same,TGI,[41],> 100 µM
same,TGI,[42],> 100 µM
same,GI50,[43],0.673 µM
same,TGI,[43],> 100 µM
same,GI50,[44],0.399 µM
same,TGI,[44],> 43.5 µM
same,GI50,[45],1.81 µM
same,TGI,[45],> 100 µM

# Reference: PubChem BioAssay (NCI)
